Data: patent US20230093099A1, “COMPOUNDS AND METHODS OF TREATING CANCERS” (CULLGEN (SHANGHAI), INC., priority 2019, published 2023)

test system: RS4;11 cells; experiment: Cell viability assay (CellTiter-Glo) in RS4;11 cells; format: cell-based; details: Homo sapiens, 72 h; RS4;11 ALL cells treated for three days; read-out: cell viability inhibition IC50
Method in brief: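 Three-day compound treatment of RS4;11 ALL cells (5000/well, 3-fold dilution series of 8 or 12 points), with IC50 from a nonlinear least-squares fit to CellTiter-Glo viability data.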

IC50	SMILES
< 100 nM	CS(=O)(=O)c1ccc(-c2cccc3nc(Nc4ccc(N5CCN(C(=O)CCCCCCCNc6ccc7c(c6)C(=O)N(C6CCC(=O)NC6=O)C7=O)CC5)cc4)nn23)cc1 (centres unmarked) [JA-203]

same assay, conditions: Homo sapiens, 72 h; RS4;11 cells; cell viability, 3 days, CellTiter-Glo; read-out: IC50

IC50	SMILES
22.8 nM	CS(=O)(=O)c1ccc(-c2cccc3nc(Nc4ccc(N5CCN(C(=O)CCCCCCCNc6ccc7c(c6)C(=O)N(C6CCC(=O)NC6=O)C7=O)CC5)cc4)nn23)cc1 (centres unmarked) [JA-203]
> 10000 nM	Cc1ncsc1-c1ccc(CNC(=O)[C@@H]2C[C@@H](O)CN2C(=O)[C@@H](NC(=O)CCOCCOCCOCCOCCOCCNC(=O)CN2CCN(c3ccc(Nc4nc5cccc(-c6ccc(S(C)(=O)=O)cc6)n5n4)cc3)CC2)C(C)(C)C)cc1 [JA-138, (2S,4R)-1-((S)-23-(tert-Butyl)-1-(4-(4-((5-(4-(methylsulfonyl)phenyl)-[1,2,4]triazolo[1,5-a]pyridin-2-yl)amino)phenyl)piperazin-1-yl)-2,21-dioxo-6,9,12,15,18-pentaoxa-3,22-diazatetracosan-24-oyl)-4-hydroxy-N-(4-(4-methylthiazol-5-yl)benzyl)pyrrolidine-2-carboxamide]
247 nM	CS(=O)(=O)c1ccc(-c2cccc3nc(Nc4ccc(N5CCN(C(=O)CCCCC#Cc6ccc7c(c6)C(=O)N(C6CCC(=O)NC6=O)C7=O)CC5)cc4)nn23)cc1 (centres unmarked) [JA-248, 2-(2,6-Dioxopiperidin-3-yl)-5-(7-(4-(4-((5-(4-(methylsulfonyl)phenyl)-[1,2,4]triazolo[1,5-a]pyridin-2-yl)amino)phenyl)piperazin-1-yl)-7-oxohept-1-yn-1-yl)isoindoline-1,3-dione]
> 10000 nM	O=C1CCC(N2C(=O)c3ccc(NCCOCCOCCC(=O)N4CCC(n5cc(-c6cnc7cccc(-c8cc(F)c(CN9CCOCC9)c(F)c8)c7n6)cn5)CC4)cc3C2=O)C(=O)N1 (centres unmarked) [JA-183, 5-((2-(2-(3-(4-(4-(8-(3,5-Difluoro-4-(morpholinomethyl)phenyl)quinoxalin-2-yl)-1H-pyrazol-1-yl)piperidin-1-yl)-3-oxopropoxy)ethoxy)ethyl)amino)-2-(2,6-dioxopiperidin-3-yl)isoindoline-1,3-dione]
2450 nM	O=C(CN1CCC(n2cc(-c3cnc4cccc(-c5cc(F)c(CN6CCOCC6)c(F)c5)c4n3)cn2)CC1)NCCNc1ccc2c(c1)C(=O)N(C1CCC(=O)NC1=O)C2=O (centres unmarked) [JA-174, 2-(4-(4-(8-(3,5-Difluoro-4-(morpholinomethyl)phenyl)quinoxalin-2-yl)-1H-pyrazol-1-yl)piperidin-1-yl)-N-(2-((2-(2,6-dioxopiperidin-3-yl)-1,3-dioxoisoindolin-5-yl)amino)ethyl)acetamide]
> 10000 nM	Cc1ncsc1-c1ccc(CNC(=O)[C@@H]2C[C@@H](O)CN2C(=O)[C@@H](NC(=O)CCCCCCCCCC(=O)N2CCC(n3cc(-c4cnc5cccc(-c6cc(F)c(CN7CCOCC7)c(F)c6)c5n4)cn3)CC2)C(C)(C)C)cc1 [JA-059, (2S,4R)-1-[(2S)-2-[[11-[4-[4-[8-[3,5-Difluoro-4-(morpholinomethyl)phenyl]quinoxalin-2-yl]pyrazol-1-yl]-1-piperidyl]-11-oxo-undecanoyl]amino]-3,3-dimethyl-butanoyl]-4-hydroxy-N-[[4-(4-methylthiazol-5-yl)phenyl]methyl]pyrrolidine-2-carboxamide]
633 nM	Cc1cnc(Nc2ccc(N3CCN(C(=O)CCOCCOCCOCCOCCNc4cccc5c4C(=O)N(C4CCC(=O)NC4=O)C5=O)CC3)cc2)nc1Nc1cccc(S(=O)(=O)NC(C)(C)C)c1 (centres unmarked) [JA-020, N-(tert-Butyl)-3-((2-((4-(4-(1-((2-(2,6-dioxopiperidin-3-yl)-1,3-dioxoisoindolin-4-yl)amino)-3,6,9,12-tetraoxapentadecan-15-oyl)piperazin-1-yl)phenyl)amino)-5-methylpyrimidin-4-yl)amino)benzenesulfonamide]
> 10000 nM	O=C1CCC(N2C(=O)c3cccc(NCCCCCCC(=O)N4CCC(n5cc(-c6cnc7cccc(-c8cc(F)c(CN9CCOCC9)c(F)c8)c7n6)cn5)CC4)c3C2=O)C(=O)N1 (centres unmarked) [JA-040, 4-[[7-[4-[4-[8-[3,5-Difluoro-4-(morpholinomethyl)phenyl]quinoxalin-2-yl]pyrazol-1-yl]-1-piperidyl]-7-oxo-heptyl]amino]-2-(2,6-dioxo-3-piperidyl)isoindoline-1,3-dione]
1270 nM	O=C1CCC(N2C(=O)c3cccc(NCCOCCOCCOCCC(=O)N4CCC(n5cc(-c6cnc7cccc(-c8cc(F)c(CN9CCOCC9)c(F)c8)c7n6)cn5)CC4)c3C2=O)C(=O)N1 (centres unmarked) [JA-049, 4-[2-[2-[2-[3-[4-[4-[8-[3,5-Difluoro-4-(morpholinomethyl)phenyl]quinoxalin-2-yl]pyrazol-1-yl]-1-piperidyl]-3-oxo-propoxy]ethoxy]ethoxy]ethylamino]-2-(2,6-dioxo-3-piperidyl)isoindoline-1,3-dione]
> 10000 nM	Cc1ncsc1-c1ccc(CNC(=O)[C@@H]2C[C@@H](O)CN2C(=O)[C@@H](NC(=O)CCOCCOCCOCCOCCOCCC(=O)N2CCC(n3cc(-c4cnc5cccc(-c6cc(F)c(CN7CCOCC7)c(F)c6)c5n4)cn3)CC2)C(C)(C)C)cc1 [JA-044, (2S,4R)-1-[(2S)-2-[3-[2-[2-[2-[2-[3-[4-[4-[8-[3,5-Difluoro-4-(morpholinomethyl)phenyl]quinoxalin-2-yl]pyrazol-1-yl]-1-piperidyl]-3-oxo-propoxy]ethoxy]ethoxy]ethoxy]ethoxy]propanoylamino]-3,3-dimethyl-butanoyl]-4-hydroxy-N-[[4-(4-methylthiazol-5-yl)phenyl]methyl]pyrrolidine-2-carboxamide]
> 10000 nM	Cc1cnc(Nc2ccc(N3CCN(CC(=O)NCCCCCCC(=O)N[C@H](C(=O)N4C[C@H](O)C[C@H]4C(=O)NCc4ccc(-c5scnc5C)cc4)C(C)(C)C)CC3)cc2)nc1Nc1cccc(S(=O)(=O)NC(C)(C)C)c1 [JA-102, (2S,4R)-1-((S)-2-(7-(2-(4-(4-((4-((3-(N-(tert-Butyl)sulfamoyl)phenyl)amino)-5-methylpyrimidin-2-yl)amino)phenyl)piperazin-1-yl)acetamido)heptanamido)-3,3-dimethylbutanoyl)-4-hydroxy-N-(4-(4-methylthiazol-5-yl)benzyl)pyrrolidine-2-carboxamide]
> 10000 nM	Cc1ncsc1-c1ccc(CNC(=O)[C@@H]2C[C@@H](O)CN2C(=O)[C@@H](NC(=O)CCCCCCC(=O)N2CCN(c3ccc(Nc4nc5cccc(-c6ccc(S(C)(=O)=O)cc6)n5n4)cc3)CC2)C(C)(C)C)cc1 [JA-062, (2S,4R)-1-((S)-3,3-Dimethyl-2-(8-(4-(4-((5-(4-(methylsulfonyl)phenyl)-[1,2,4]triazolo[1,5-a]pyridin-2-yl)amino)phenyl)piperazin-1-yl)-8-oxooctanamido)butanoyl)-4-hydroxy-N-(4-(4-methylthiazol-5-yl)benzyl)pyrrolidine-2-carboxamide]
> 500 nM	Cn1c(=O)n(C2CCC(=O)NC2=O)c2ccc(NCCCCCC(=O)N3CCC(n4cc(-c5cnc6cccc(-c7cc(F)c(CN8CCOCC8)c(F)c7)c6n5)cn4)CC3)cc21 (centres unmarked) [JA-288, 3-(5-((6-(4-(4-(8-(3,5-Difluoro-4-(morpholinomethyl)phenyl)quinoxalin-2-yl)-1H-pyrazol-1-yl)piperidin-1-yl)-6-oxohexyl)amino)-3-methyl-2-oxo-2,3-dihydro-1H-benzo[d]imidazol-1-yl)piperidine-2,6-dione]
